Measurements: patent EP1908472A1, “Silicon derivatives for PET imaging” (Bayer Schering Pharma Aktiengesellschaft, priority 2006, dated 2008)

Key:
[1] = Hydrolytic stability of 19F fluorosilanes (hydrolysis to the hydroxy compound) at physiological pH; type: physicochemical; conditions: for remaining at 6 h / half-life: buffer; for remaining at 6 h: fraction of intact 19F compound after 6 hours under hydrolytic conditions at pH 7; for half-life: hydrolytic halflife, physiological pH (7.0), 19F compound, calculated from the kinetics; for rel. stability: ratio of hydrolytic halflife to radioactive halflife of 18-F (1.83 hours), pH 7.0
Method: The time dependent degree of hydrolysis of compounds of formula I in which X is a fluorine atom of isotope 19 to compounds of formula I in which X is a hydroxy group was determined at physiological pH (7.0). From the kinetics the hydrolytic halflife (t1/2) measured in hours [h] of compounds of formula I in which X is a fluorine atom of isotope 19 were calculated (Table 1, column 2).
The ratio of the hydrolytic halflifes of compounds of formula I in which X is a fluorine atom of isotope 19 and the radioactive halflife of the 18-F isotope (1.83 hours) is defined as relative stability (Table 1, column 3).
After 6 hours 90% of the 18-F isotope have been decayed.
Compounds of formula I in which X is a fluorine atom of isotope 18 are considered as useful for PET applications if the relative stability of their analogs bearing a fluorine atom of isotope 19 exceed a factor of four and if at least 50% of these compounds remain intact after 6 hours under hydrolytic conditions at pH 7.

[2] = rats allowed to inhale the gas; shows fast release of fluoride in vivo; cited from earlier work

SMILES | remaining at 6 h [1] [%] | half-life [1] [h] | rel. stability [1] | uptake of ^18F in the bone [2]
CC(C)C[Si](F)(CC(C)C)c1ccc(COC2CCCCO2)cc1 (racemic) [Compound 3g-F, (RS)-Fluoro-diisobutyl-[4-(tetrahydro-pyran-2-yloxymethyl)-phenyl]-silane] | 59 | 8.1 | 4.5 | –
CC(C)[Si](F)(c1cccc(CCO)c1)C(C)C [4e - F, 2-[3-(Fluoro-diisopropyl-silanyl)-phenyl]-ethanol] | 78 | 23.3 | 12.7 | –
CC(C)[Si](F)(c1ccc(CCC(=O)O)cc1)C(C)C [5c - F, 3-[4-(Fluoro-diisopropyl-silanyl)-phenyl]-propionic acid] | 92 | 59 | 32.2 | –
CC(C)[Si](F)(c1ccc(CCCOC2CCCCO2)cc1)C(C)C (racemic) [3c - F, (RS)-Fluoro-diisopropyl-{4-[3-(tetrahydro-pyran-2-yloxy)-propyl]-phenyl}-silane] | 95 | 99.9 | 54.6 | –
CC(C)[Si](F)(c1cccc(CCCO)c1)C(C)C [4d - F, 3-[3-(Fluoro-diisopropyl-silanyl)-phenyl]-propan-1-ol] | 89 | 43.3 | 23.7 | –
CC(C)C[Si](F)(CC(C)C)c1ccc(C(=O)O)cc1 [5g - F, 4-(Fluoro-diisobutyl-silanyl)-benzoic acid] | 31 | 3.5 | 1.9 | –
CC(C)[Si](F)(c1ccc(CCOC2CCCCO2)cc1)C(C)C (racemic) [3b - F, (RS)-Fluoro-diisopropyl-{4-[2-(tetrahydro-pyran-2-yloxy)-ethyl]-phenyl}-silane] | 94 | 76.4 | 41.8 | –
CC(C)[Si](F)(c1cccc(CCOC2CCCCO2)c1)C(C)C (racemic) [3e - F, (RS)-Fluoro-diisopropyl-{3-[2-(tetrahydro-pyran-2-yloxy)-ethyl]-phenyl}-silane] | > 95 | > 100 | > 54.6 | –
CC(C)[Si](F)(c1ccc(C(=O)O)cc1)C(C)C [5a - F, 4-(Fluoro-diisopropyl-silanyl)-benzoic acid] | 66 | 10.9 | 6.1 | –
CC(C)[Si](F)(CCCNC(=O)c1ccccc1)C(C)C [22 - F, N-[3-(Fluoro-diisopropyl-silanyl)-propyl]-benzamide] | 83 | 33.6 | 18.4 | –
CC(C)C[Si](F)(CCCCC(=O)Nc1ccccc1)CC(C)C [30a - 1F, 5-(Fluoro-diisobutyl-silanyl)-pentanoic acid phenylamide] | 71 | 13.8 | 7.5 | –
C[Si](C)(C)[18F] [^18F-Fluorotrimethylsilane] | – | – | – | extensive uptake of ^18F in the bone
CC(C)[Si](F)(c1cccc(CC(=O)O)c1)C(C)C [5e - F, [3-(Fluoro-diisopropyl-silanyl)-phenyl]-acetic acid] | 78 | 20 | 10.9 | –
CC(C)[Si](F)(c1ccc(CCO)cc1)C(C)C [4b - F, 2-[4-(Fluoro-diisopropyl-silanyl)-phenyl]-ethanol] | 84 | 66.8 | 36.5 | –
CC(C)C[Si](F)(CC(C)C)c1ccc(CCOC2CCCCO2)cc1 (racemic) [Compound 3h-F, (RS)-Fluoro-diisobutyl-{4-[2-(tetrahydro-pyran-2-yloxy)-ethyl]-phenyl}-silane] | 79 | 19.2 | 10.7 | –
CC(C)[Si](F)(c1cccc(CCCOC2CCCCO2)c1)C(C)C (racemic) [3d - F, (RS)-Fluoro-diisopropyl-{3-[3-(tetrahydro-pyran-2-yloxy)-propyl]-phenyl}-silane] | > 95 | > 100 | > 54.6 | –
CC(C)C[Si](F)(CC(C)C)c1ccc(CC(=O)O)cc1 [5h - F, [4-(Fluoro-diisobutyl-silanyl)-phenyl]-acetic acid] | 61 | 8.7 | 4.8 | –
CC(C)[Si](F)(c1ccc(CCCO)cc1)C(C)C [4c - F, 3-[4-(Fluoro-diisopropyl-silanyl)-phenyl]-propan-1-ol] | 90 | > 100 | > 54.6 | –
CC(C)[Si](F)(c1ccc(CC(=O)O)cc1)C(C)C [5b - F, [4-(Fluoro-diisopropyl-silanyl)-phenyl]-acetic acid] | 82 | 24.7 | 13.5 | –
F[Si](c1ccccc1)(c1ccccc1)c1ccc(CCOC2CCCCO2)cc1 (racemic) [3f - F, (RS)-Fluoro-diphenyl-{4-[2-(tetrahydro-pyran-2-yloxy)-ethyl]-phenyl}-silane] | < 1 | 0.07 | 0.04 | –
CC(C)[Si](F)(c1ccc(COC2CCCCO2)cc1)C(C)C (racemic) [3a - F, (RS)-Fluoro-diisopropyl-[4-(tetrahydro-pyran-2-yloxymethyl)-phenyl]-silane] | 90 | 49.4 | 27.0 | –
CC(C)[Si](F)(c1ccc(CO)cc1)C(C)C [4a -F, [4-(Fluoro-diisopropyl-silanyl)-phenyl]-methanol] | 85 | 28.1 | 15.4 | –
CC(C)[Si](F)(c1cccc(CCC(=O)O)c1)C(C)C [5d - F, 3-[3-(Fluoro-diisopropyl-silanyl)-phenyl]-propionic acid] | 81 | 22.2 | 12.1 | –
